Source: ChEMBL document CHEMBL1201862, “PubChem BioAssay data set” (2004)
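These data come from cells grown in 96-well plates and exposed to compound for 48 hours at five concentrations. Abbreviation: GI50, concentration required for 50% inhibition of growth.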 Activity calls are given as the source filed them. No stated cut-off is given here; in the data, active = GI50 up to about 1.1 µM and inactive = higher.

Columns and labels:
Assay in all cases: growth of human tumour cells (NCI), 48 h
786-0 = tested on: 786-0
A549 = tested on: A549
CCRF-CEM = tested on: CCRF-CEM
HCT-116 = tested on: HCT-116
K562 = tested on: K562
MOLT-4 = tested on: MOLT-4
NCI-H226 = tested on: NCI-H226
NCI/ADR-RES = tested on: NCI/ADR-RES
OVCAR-3 = tested on: OVCAR-3
OVCAR-4 = tested on: OVCAR-4
OVCAR-8 = tested on: OVCAR-8
RPMI-8226 = tested on: RPMI-8226
RXF 393 = tested on: RXF 393
SF-539 = tested on: SF-539
SK-MEL-28 = tested on: SK-MEL-28
SK-OV-3 = tested on: SK-OV-3
SW-620 = tested on: SW-620
UACC-257 = tested on: UACC-257
UO-31 = tested on: UO-31

Row | Compound | GI50 (786-0) | GI50 (A549) | GI50 (CCRF-CEM) | GI50 (HCT-116) | GI50 (K562) | GI50 (MOLT-4) | GI50 (NCI-H226) | GI50 (NCI/ADR-RES) | GI50 (OVCAR-3) | GI50 (OVCAR-4) | GI50 (OVCAR-8) | GI50 (RPMI-8226) | GI50 (RXF 393) | GI50 (SF-539) | GI50 (SK-MEL-28) | GI50 (SK-OV-3) | GI50 (SW-620) | GI50 (UACC-257) | GI50 (UO-31)
1 | CCOC(=O)c1c(O)nc2cccc3c2c1-c1cccnc1S3 | 36 µM (inactive) | 18.9 µM (inactive) | 24 µM (inactive) | 44.5 µM (inactive) | 32.1 µM (inactive) | 16.9 µM (inactive) | 19.9 µM (inactive) | 33.1 µM (inactive) | 28.6 µM (inactive) | 33.1 µM (inactive) | 35.5 µM (inactive) | 17.5 µM (inactive) | 11 µM (inactive) | 27.6 µM (inactive) | 30.8 µM (inactive) | 30.9 µM (inactive) | 55.3 µM (inactive) | 37.6 µM (inactive) | 23 µM (inactive)
2 | COc1ccccc1C1C2=C(COC2=O)OC(C)(C)Oc2cc3c(cc21)OCO3 (configuration not stated) | 3.83 µM (inactive) | 5.13 µM (inactive) | 4.06 µM (inactive) | 3.75 µM (inactive) | 1.34 µM (inactive) | 3.82 µM (inactive) | 10.3 µM (inactive) | 3.18 µM (inactive) | 2.73 µM (inactive) | 10.3 µM (inactive) | 5.12 µM (inactive) | 4.03 µM (inactive) | 1.06 µM (active) | 2.74 µM (inactive) | 7.28 µM (inactive) | 4 µM (inactive) | 3.67 µM (inactive) | 6.81 µM (inactive) | 10 µM (inactive)
3 | CN1CCc2c(sc3ncn(Nc4ccc(Cl)cc4)c(=N)c23)C1 | > 100 µM (inactive) | > 100 µM (inactive) | > 100 µM (inactive) | > 100 µM (inactive) | > 100 µM (inactive) | > 100 µM (inactive) | > 100 µM (inactive) | > 100 µM (inactive) | > 100 µM (inactive) | > 100 µM (inactive) | > 100 µM (inactive) | > 100 µM (inactive) | > 100 µM (inactive) | > 100 µM (inactive) | > 100 µM (inactive) | > 100 µM (inactive) | > 100 µM (inactive) | > 100 µM (inactive) | 
4 | CCN(CC)CCCNc1ccc([N+](=O)[O-])c2nc3ccc(OC)cc3c(N)c12 | 1.44 µM (inactive) | 1.86 µM (inactive) | 1.34 µM (inactive) | 1.05 µM (active) | 2.1 µM (inactive) | 1.33 µM (inactive) | > 10 µM (inactive) | > 4.17 µM (inactive) | > 4.46 µM (inactive) | 1.92 µM (inactive) | 1.95 µM (inactive) | 2 µM (inactive) | > 10 µM (inactive) | 1.85 µM (inactive) | > 10 µM (inactive) | > 3.92 µM (inactive) | 1.49 µM (inactive) | > 10 µM (inactive) | > 5.58 µM (inactive)
5 | C=C1C(=O)OC2/C=C(/C)C(OC(C)=O)C/C=C(\C)C(OC(=O)C3(C)OC3C)C(O)C12 (configuration not stated) | 47.4 µM (inactive) | > 100 µM (inactive) | 34 µM (inactive) | 39.7 µM (inactive) | 40.8 µM (inactive) | 36.9 µM (inactive) | > 100 µM (inactive) | > 100 µM (inactive) | > 100 µM (inactive) | > 100 µM (inactive) | > 100 µM (inactive) | 43.9 µM (inactive) | > 100 µM (inactive) | > 100 µM (inactive) | 71 µM (inactive) | > 100 µM (inactive) | 42.4 µM (inactive) | > 100 µM (inactive) | 
6 | Cc1cc(S(=O)(=O)/N=C(\NN)NNc2cccc(C(F)(F)F)n2)c(S)cc1Cl | 19.4 µM (inactive) | 22.8 µM (inactive) | 23.3 µM (inactive) | 21.3 µM (inactive) | 22.7 µM (inactive) | 19.2 µM (inactive) | 18.3 µM (inactive) | 19.8 µM (inactive) | 22.1 µM (inactive) | 14.4 µM (inactive) | 24.8 µM (inactive) | 32.1 µM (inactive) | 29 µM (inactive) | 21.5 µM (inactive) | 15 µM (inactive) | 25.4 µM (inactive) | 18.5 µM (inactive) | 32.6 µM (inactive) | 18.9 µM (inactive)
7 | COc1ccc2c(c1)OC1c3ccccc3OCC21 (configuration not stated) | > 100 µM (inactive) |  | 58.7 µM (inactive) | 77.3 µM (inactive) | 31.8 µM (inactive) | 27.7 µM (inactive) | 47.1 µM (inactive) | 60.3 µM (inactive) | 72.1 µM (inactive) | > 100 µM (inactive) | > 100 µM (inactive) | 71 µM (inactive) | 77.4 µM (inactive) | > 100 µM (inactive) | > 100 µM (inactive) | > 100 µM (inactive) | 96.8 µM (inactive) | > 100 µM (inactive) | 48.9 µM (inactive)
8 | Nc1nc(I)nc2c1ncn2C1OC(COS(N)(=O)=O)C(O)C1O (configuration not stated) | < 0.0106 µM (active) | 0.0275 µM (active) | < 0.01 µM (active) | < 0.01 µM (active) | < 0.01 µM (active) | < 0.01 µM (active) | < 0.01 µM (active) | < 0.01 µM (active) | < 0.01 µM (active) | < 0.01 µM (active) | < 0.01 µM (active) | 0.0179 µM (active) | 0.0148 µM (active) | < 0.01 µM (active) | < 0.01 µM (active) | < 0.0166 µM (active) | 0.0235 µM (active) | 0.0163 µM (active) | 0.0187 µM (active)
9 | O=C(CC(O)(C(F)(F)F)C(F)(F)F)c1cc(CC(=O)C(O)(C(F)(F)F)C(F)(F)F)cc(CC(=O)C(O)(C(F)(F)F)C(F)(F)F)c1 | 1.79 µM (inactive) | 1.84 µM (inactive) | > 10 µM (inactive) | 0.76 µM (active) | > 10 µM (inactive) | 4.47 µM (inactive) | 3.01 µM (inactive) | 1.85 µM (inactive) | 0.454 µM (active) | 1.77 µM (inactive) | 1.95 µM (inactive) | > 10 µM (inactive) | 1.47 µM (inactive) | 2.05 µM (inactive) | 1.64 µM (inactive) | 2.14 µM (inactive) | 2.06 µM (inactive) | 1.95 µM (inactive) | 1.25 µM (inactive)
10 | O=C(/C=C/c1ccc(Cl)cc1)c1ccccc(=O)c1O | 1.18 µM (inactive) | 1.41 µM (inactive) | 0.255 µM (active) | 0.957 µM (active) | 1.17 µM (inactive) | 0.798 µM (active) | 1.41 µM (inactive) | 0.36 µM (active) | 3.64 µM (inactive) | 0.673 µM (active) | 0.698 µM (active) | 1.07 µM (active) | 2.81 µM (inactive) | 2.32 µM (inactive) | 3.43 µM (inactive) | 3.56 µM (inactive) | 4.38 µM (inactive) | 2.49 µM (inactive) | 1.51 µM (inactive)
11 | O=C1c2ccccc2C(=O)N1CCCC(=O)n1cc(F)c(=O)[nH]c1=O | 14.4 µM (inactive) | 3.6 µM (inactive) | 18.6 µM (inactive) | 6.24 µM (inactive) | 24.9 µM (inactive) | 35.4 µM (inactive) | 38.5 µM (inactive) | 7.98 µM (inactive) | > 22.7 µM (inactive) | > 100 µM (inactive) | 10.7 µM (inactive) | 5.06 µM (inactive) | > 47.4 µM (inactive) | 7 µM (inactive) | > 100 µM (inactive) | > 91 µM (inactive) | > 72.6 µM (inactive) | > 75.2 µM (inactive) | 11.4 µM (inactive)
12 | CC1=CC(=O)[C@@H](O)[C@]2(C)[C@H]3[C@@]4(O)OC[C@]35[C@H]([C@@H](C)[C@H]4O)[C@@H](OC(=O)C(C)(C)CO)C(=O)O[C@@H]5C[C@@H]12 | 0.16 µM (active) | 2.51 µM (inactive) | 0.0362 µM (active) | < 0.0199 µM (active) | 0.0123 µM (active) | 0.0178 µM (active) | < 0.0216 µM (active) | 2.32 µM (inactive) | < 0.0231 µM (active) | 0.122 µM (active) | 0.19 µM (active) | 0.0158 µM (active) | 0.237 µM (active) | < 0.0153 µM (active) | 0.0478 µM (active) | 4.31 µM (inactive) | 0.229 µM (active) | 0.118 µM (active) | 0.316 µM (active)
13 | CS(=O)(=O)OCCN(CCOS(C)(=O)=O)c1ccc(/C=N/c2ccc(-c3csc(Cc4ccccc4)n3)cc2)c(Cl)c1 | 23 µM (inactive) | 11.6 µM (inactive) | 10.1 µM (inactive) | 19.5 µM (inactive) | 12.5 µM (inactive) | 17.2 µM (inactive) | 0.218 µM (active) | 23.2 µM (inactive) | 17.7 µM (inactive) | 31.7 µM (inactive) | 27.4 µM (inactive) | 23.8 µM (inactive) | 33.7 µM (inactive) | 22.8 µM (inactive) | 45.1 µM (inactive) | 43.5 µM (inactive) | 31.8 µM (inactive) | 3.83 µM (inactive) | 26.4 µM (inactive)
14 | Cc1sc(Nc2ccccc2[N+](=O)[O-])c(C#N)c1C | 22.6 µM (inactive) | > 100 µM (inactive) | > 100 µM (inactive) | 17.5 µM (inactive) | > 100 µM (inactive) | > 100 µM (inactive) | 39.7 µM (inactive) | 16.8 µM (inactive) | 19.8 µM (inactive) | 43.6 µM (inactive) | 27.7 µM (inactive) | > 100 µM (inactive) | 5.12 µM (inactive) | 21.5 µM (inactive) | 99.3 µM (inactive) | 66.1 µM (inactive) |  | > 100 µM (inactive) | > 100 µM (inactive)
